Reference: paper PMC9656319, “Pharmacokinetics and Tissue Distribution of Coumarins from Tagetes lucida in an LPS-Induced Neuroinflammation Model” (Plants, 2022)

How the values were obtained:
[1] = Tissue distribution in the brain after oral hexanic extract of Tagetes lucida, healthy and LPS-administrated mice; assay type: in vivo, ICR mice; settings: after the initial absorption process
Protocol: After blood sampling, the mice were sacrificed in a chamber with chloroform by an overdose of anesthesia. The brain, kidney, and spleen were quickly removed and rinsed with saline solution, fresh weight was recorded, and immediately placed on ice. Subsequently, the organs were freeze-dried, grounded, and weighted. The lyophilized organs were individually suspended in methanol in a 1:1 volume: dry weight ratio for 24 h, then sonicated for 5 min and centrifuged at 14,000 rpm for 7 min. The supernatants were recovered in clean tubes and stored at −70 °C until their use.
One hundred microliters of plasma and organs samples, spiked with calibration and QC concentration or samples from the pharmacokinetic study, were mixed with 300 µL of acetonitrile containing the IS at 10 µg/mL for protein precipitation, and vortexed for 3 min. Then, 200 µL of dichloromethane were added, for liquid–liquid extraction of the bioactive compounds, and vortexed for 5 min. The mixture was centrifuged at 14,000 rpm for 10 min, and the extracted organic layers were placed in new tubes, until completely dry at room temperature. For quantitative analysis, samples were resuspended in 100 µL of methanol, transferred to sampling vials, and injected into the chromatographic system, described below.
A pharmacokinetic study was carried out in sixty mice, divided in six subgroups, according to sample collection times. An acute inflammation process by the intraperitoneal (i.p.) administration of LPS at 2 mg/kg was induced in half of the mice per group, while the other half received an i.p. injection of saline solution. Ten min after the damage was induced, the mice were administered with an oral dose of 10 mg/kg of the bioactive fraction dissolved in a 1% Tween-20 aqueous solution. […]
To evaluate the distribution in the tissues, bioactive coumarins were quantified in the lyophilized organs, and concentrations were adjusted to the volumes of liquid obtained by the difference between the dry and fresh weights of each tissue to simulate a distribution approximation of the compounds by tissue system.

[2] = Stability of the analytes in spiked plasma, brain, kidney and spleen matrices (autosampler, long-term, freeze-thaw); assay type: physicochemical, mice; settings: for Stability Autosampler RE (%): processed samples in autosampler vials 24 h room temperature; for Stability Freeze-Thaw RE (%): three cycles (−4 °C to 25 °C); for Stability Long-Term RE (%): −70 °C for 30 days
Summary of the method: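 QC samples at 0.3, 3 and 30 µg/mL of each coumarin spiked into blank plasma or brain, kidney and spleen supernatants. Stability covered 24 h at room temperature in autosampler vials, 30 days at −70 °C, and three freeze-thaw cycles (−4 °C to 25 °C) on consecutive days.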

[3] = design: method as in PMID 22465507; settings: rats, distribution of SC in different organs; cited from earlier work
[4] = Pharmacokinetic study in plasma after oral hexanic extract of Tagetes lucida, healthy and LPS-damaged mice; assay type: in vivo, ICR mice; settings: plasma; for Cmax / AUC(0-inf) / MRT / Tmax / half-life / AUC(0-t): ICR, mouse, po, 10 mg/kg; for Cmax / AUC(0-inf) / MRT / Tmax / half-life / AUC(0-t) / Cl/F: 10 mg/kg oral hexanic extract, mean ± SEM (n = 5); for Cmax: non-compartmental; for AUC(0-t): to 6 h

COc1cc2ccc(=O)oc2cc1OC [SC, scoparone]
time at which the highest concentration in the brain tissue is reached [1]: 15 min | Stability Autosampler RE (%) ([2]; brain, nominal 0.3 µg/mL): -2.15% | Stability Freeze-Thaw RE (%) ([2]; brain, nominal 0.3 µg/mL): -1.98% | Stability Long-Term RE (%) ([2]; brain, nominal 0.3 µg/mL): -0.19% | Stability Autosampler RE (%) ([2]; brain, nominal 3.0 µg/mL): 0.37% | Stability Freeze-Thaw RE (%) ([2]; brain, nominal 3.0 µg/mL): -3.09% | Stability Long-Term RE (%) ([2]; brain, nominal 3.0 µg/mL): -0.94% | Stability Autosampler RE (%) ([2]; brain, nominal 30.0 µg/mL): 4.78% | Stability Freeze-Thaw RE (%) ([2]; brain, nominal 30.0 µg/mL): -2.00% | Stability Long-Term RE (%) ([2]; brain, nominal 30.0 µg/mL): -4.75% | Stability Autosampler RE (%) ([2]; kidney, nominal 0.3 µg/mL): 7.01% | Stability Freeze-Thaw RE (%) ([2]; kidney, nominal 0.3 µg/mL): 2.62% | Stability Long-Term RE (%) ([2]; kidney, nominal 0.3 µg/mL): 3.92% | Stability Autosampler RE (%) ([2]; kidney, nominal 3.0 µg/mL): 5.72% | Stability Freeze-Thaw RE (%) ([2]; kidney, nominal 3.0 µg/mL): 1.51% | Stability Long-Term RE (%) ([2]; kidney, nominal 3.0 µg/mL): 2.63% | Stability Autosampler RE (%) ([2]; kidney, nominal 30.0 µg/mL): -0.35% | Stability Freeze-Thaw RE (%) ([2]; kidney, nominal 30.0 µg/mL): 0.49% | Stability Long-Term RE (%) ([2]; kidney, nominal 30.0 µg/mL): 4.36% | Stability Autosampler RE (%) ([2]; plasma, nominal 0.3 µg/mL): 10.18% | Stability Freeze-Thaw RE (%) ([2]; plasma, nominal 0.3 µg/mL): -14.02% | Stability Long-Term RE (%) ([2]; plasma, nominal 0.3 µg/mL): -3.50% | Stability Autosampler RE (%) ([2]; plasma, nominal 3.0 µg/mL): 8.27% | Stability Freeze-Thaw RE (%) ([2]; plasma, nominal 3.0 µg/mL): 2.70% | Stability Long-Term RE (%) ([2]; plasma, nominal 3.0 µg/mL): -14.30% | Stability Autosampler RE (%) ([2]; plasma, nominal 30.0 µg/mL): 4.74% | Stability Freeze-Thaw RE (%) ([2]; plasma, nominal 30.0 µg/mL): -0.10% | Stability Long-Term RE (%) ([2]; plasma, nominal 30.0 µg/mL): -8.41% | Stability Autosampler RE (%) ([2]; spleen, nominal 0.3 µg/mL): -7.70% | Stability Freeze-Thaw RE (%) ([2]; spleen, nominal 0.3 µg/mL): -9.57% | Stability Long-Term RE (%) ([2]; spleen, nominal 0.3 µg/mL): -9.67% | Stability Autosampler RE (%) ([2]; spleen, nominal 3.0 µg/mL): -6.71% | Stability Freeze-Thaw RE (%) ([2]; spleen, nominal 3.0 µg/mL): -2.65% | Stability Long-Term RE (%) ([2]; spleen, nominal 3.0 µg/mL): 2.22% | Stability Autosampler RE (%) ([2]; spleen, nominal 30.0 µg/mL): -0.99% | Stability Freeze-Thaw RE (%) ([2]; spleen, nominal 30.0 µg/mL): -4.22% | Stability Long-Term RE (%) ([2]; spleen, nominal 30.0 µg/mL): -2.12% | quantification of the coumarin inside the brain [3]: not possible to quantify | Cmax ([4]; LPS-damaged ICR mice (LPS 2 mg/kg i.p.)): 1280 ± 110 ng/mL | AUC(0-inf) ([4]; LPS-damaged ICR mice): 2780 ± 210 ng·h/mL | MRT ([4]; LPS-damaged ICR mice): 2.26 ± 0.17 h | Tmax ([4]; LPS-damaged ICR mice): 0.7 ± 0.34 h | half-life ([4]; LPS-damaged ICR mice): 0.65 ± 0.06 h | AUC(0-t) ([4]; LPS-damaged ICR mice): 2770 ± 210 ng·h/mL | AUC(0-inf) ([4]; healthy ICR mice): 4030 ± 630 ng·h/mL | MRT ([4]; healthy ICR mice): 4.68 ± 1.16 h | Tmax ([4]; healthy ICR mice): 1.25 ± 0.25 h | half-life ([4]; healthy ICR mice): 2.88 ± 0.83 h | Cmax ([4]; healthy ICR mice): 970 ± 100 ng/mL | AUC(0-t) ([4]; healthy ICR mice): 2870 ± 90 ng·h/mL | pharmacokinetic characteristics in words ([4]; LPS-treated mice, Figure 3b, 3c): fast distribution and subsequent elimination | Cl/F ([4]; LPS-damaged ICR mice): 36.52 ± 2.68 (mg/kg)/(μg/mL)/h | Cl/F ([4]; healthy ICR mice): 26.64 ± 3.00 (mg/kg)/(μg/mL)/h
